# Assay results taken from ChEMBL document CHEMBL1201862, “PubChem BioAssay data set” (2004).
#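 Compound exposure: 48 hours, 5 concentrations, 96-well plates. Here, GI50 denotes the concentration required for 50% inhibition of growth.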 Calls of active or inactive are those of the source. Cut-off read from the data, not from the text of the source: active = GI50 up to about 1.1 µM and inactive = higher.
# Assays:
# Assay in all cases: NCI anticancer screen, dose series, 48 h
# KM12 = system: KM12
# SR = system: SR
# Malme-3M = system: Malme-3M
# 786-0 = system: 786-0
# HCT-116 = system: HCT-116
# MCF7 = system: MCF7
# EKVX = system: EKVX
# MDA-MB-231 = system: MDA-MB-231
# OVCAR-8 = system: OVCAR-8
# K562 = system: K562
# T47D = system: T47D
# U-251 = system: U-251
# A549 = system: A549
# NCI-H460 = system: NCI-H460
# SF-268 = system: SF-268
# COLO 205 = system: COLO 205
# SK-MEL-2 = system: SK-MEL-2
# UO-31 = system: UO-31
# NCI/ADR-RES = system: NCI/ADR-RES
# OVCAR-3 = system: OVCAR-3
# SNB-19 = system: SNB-19
# NCI-H226 = system: NCI-H226
# DU-145 = system: DU-145
# CCRF-CEM = system: CCRF-CEM
# HT-29 = system: HT-29
# A498 = system: A498
# MDA-MB-435 = system: MDA-MB-435
# SN12C = system: SN12C
# CAKI-1 = system: CAKI-1
# HCC 2998 = system: HCC 2998
# BT-549 = system: BT-549
# NCI-H23 = system: NCI-H23
# RXF 393 = system: RXF 393
# SK-OV-3 = system: SK-OV-3
# M14 = system: M14
# PC-3 = system: PC-3
# HL-60 = system: HL-60
# OVCAR-4 = system: OVCAR-4
# Hs-578T = system: Hs-578T
# MOLT-4 = system: MOLT-4
# RPMI-8226 = system: RPMI-8226
# HOP-62 = system: HOP-62
# SK-MEL-5 = system: SK-MEL-5
# NCI-H522 = system: NCI-H522
# SK-MEL-28 = system: SK-MEL-28
# ACHN = system: ACHN
# LOX IMVI = system: LOX IMVI
# SF-539 = system: SF-539
# TK-10 = system: TK-10
# IGROV-1 = system: IGROV-1
# HCT-15 = system: HCT-15
# SW-620 = system: SW-620
# MDA-N = system: MDA-N
# UACC-257 = system: UACC-257
# OVCAR-5 = system: OVCAR-5
# SF-295 = system: SF-295
# HOP-92 = system: HOP-92
# UACC-62 = system: UACC-62
compound,measurement,setting,value
CNC(=O)Nc1nc2cc([N+](=O)[O-])ccc2[nH]1,GI50,KM12,> 100 µM (inactive)
same,GI50,SR,47.1 µM (inactive)
same,GI50,Malme-3M,> 100 µM (inactive)
same,GI50,786-0,> 100 µM (inactive)
same,GI50,HCT-116,> 100 µM (inactive)
same,GI50,MCF7,> 100 µM (inactive)
same,GI50,EKVX,> 100 µM (inactive)
same,GI50,MDA-MB-231,> 100 µM (inactive)
same,GI50,OVCAR-8,> 100 µM (inactive)
same,GI50,K562,> 100 µM (inactive)
same,GI50,T47D,> 100 µM (inactive)
same,GI50,U-251,> 100 µM (inactive)
same,GI50,A549,> 100 µM (inactive)
same,GI50,NCI-H460,7.55 µM (inactive)
same,GI50,SF-268,> 100 µM (inactive)
same,GI50,COLO 205,> 100 µM (inactive)
same,GI50,SK-MEL-2,21.5 µM (inactive)
same,GI50,UO-31,> 100 µM (inactive)
same,GI50,NCI/ADR-RES,> 100 µM (inactive)
same,GI50,OVCAR-3,> 100 µM (inactive)
same,GI50,SNB-19,> 100 µM (inactive)
same,GI50,NCI-H226,> 100 µM (inactive)
same,GI50,DU-145,> 100 µM (inactive)
same,GI50,CCRF-CEM,67.8 µM (inactive)
same,GI50,HT-29,> 100 µM (inactive)
same,GI50,A498,> 100 µM (inactive)
same,GI50,MDA-MB-435,> 100 µM (inactive)
same,GI50,SN12C,> 100 µM (inactive)
same,GI50,CAKI-1,61.4 µM (inactive)
same,GI50,HCC 2998,> 100 µM (inactive)
same,GI50,BT-549,49.9 µM (inactive)
same,GI50,NCI-H23,> 100 µM (inactive)
same,GI50,RXF 393,> 100 µM (inactive)
same,GI50,SK-OV-3,> 100 µM (inactive)
same,GI50,M14,> 100 µM (inactive)
same,GI50,PC-3,> 100 µM (inactive)
same,GI50,HL-60,49 µM (inactive)
same,GI50,OVCAR-4,> 100 µM (inactive)
same,GI50,Hs-578T,> 100 µM (inactive)
same,GI50,MOLT-4,> 100 µM (inactive)
same,GI50,RPMI-8226,> 100 µM (inactive)
same,GI50,HOP-62,> 100 µM (inactive)
same,GI50,SK-MEL-5,> 100 µM (inactive)
same,GI50,NCI-H522,44.1 µM (inactive)
same,GI50,SK-MEL-28,> 100 µM (inactive)
same,GI50,ACHN,> 100 µM (inactive)
same,GI50,LOX IMVI,> 100 µM (inactive)
same,GI50,SF-539,> 100 µM (inactive)
same,GI50,TK-10,> 100 µM (inactive)
same,GI50,IGROV-1,64.6 µM (inactive)
same,GI50,HCT-15,> 100 µM
same,GI50,SW-620,> 100 µM (inactive)
same,GI50,MDA-N,> 100 µM (inactive)
same,GI50,UACC-257,> 100 µM (inactive)
same,GI50,OVCAR-5,> 100 µM (inactive)
same,GI50,SF-295,> 100 µM (inactive)
same,GI50,HOP-92,86.1 µM (inactive)
CC(C)(C)NC(=O)C12C3C4C1C1C2C3C41C(=O)NC(C)(C)C (stereo unspecified),GI50,KM12,> 100 µM (inactive)
same,GI50,SR,45.6 µM (inactive)
same,GI50,786-0,> 100 µM (inactive)
same,GI50,HCT-116,> 100 µM (inactive)
same,GI50,MCF7,> 100 µM (inactive)
same,GI50,EKVX,> 100 µM (inactive)
same,GI50,MDA-MB-231,> 100 µM (inactive)
same,GI50,OVCAR-8,> 100 µM (inactive)
same,GI50,K562,> 100 µM (inactive)
same,GI50,T47D,> 100 µM (inactive)
same,GI50,U-251,> 100 µM (inactive)
same,GI50,A549,> 100 µM (inactive)
same,GI50,NCI-H460,> 100 µM (inactive)
same,GI50,SF-268,> 100 µM (inactive)
same,GI50,COLO 205,> 100 µM (inactive)
same,GI50,SK-MEL-2,> 100 µM (inactive)
same,GI50,UO-31,> 100 µM (inactive)
same,GI50,NCI/ADR-RES,> 100 µM (inactive)
same,GI50,OVCAR-3,> 100 µM (inactive)
same,GI50,UACC-62,> 100 µM (inactive)
same,GI50,SNB-19,47.8 µM (inactive)
same,GI50,DU-145,> 100 µM (inactive)
same,GI50,CCRF-CEM,26.4 µM (inactive)
same,GI50,HT-29,> 100 µM (inactive)
same,GI50,A498,> 100 µM (inactive)
same,GI50,MDA-MB-435,> 100 µM (inactive)
same,GI50,SN12C,> 100 µM (inactive)
same,GI50,CAKI-1,> 100 µM (inactive)
same,GI50,HCC 2998,> 100 µM (inactive)
same,GI50,BT-549,> 100 µM (inactive)
same,GI50,NCI-H23,> 100 µM (inactive)
same,GI50,RXF 393,40.8 µM (inactive)
same,GI50,M14,> 100 µM (inactive)
same,GI50,PC-3,> 100 µM (inactive)
same,GI50,HL-60,> 100 µM (inactive)
same,GI50,OVCAR-4,> 100 µM (inactive)
same,GI50,Hs-578T,32.8 µM (inactive)
same,GI50,MOLT-4,78.3 µM (inactive)
same,GI50,HOP-62,58.9 µM (inactive)
same,GI50,SK-MEL-5,> 100 µM (inactive)
same,GI50,NCI-H522,> 100 µM (inactive)
same,GI50,SK-MEL-28,> 100 µM (inactive)
same,GI50,ACHN,> 100 µM (inactive)
same,GI50,LOX IMVI,> 100 µM (inactive)
same,GI50,SF-539,> 100 µM (inactive)
same,GI50,TK-10,> 100 µM (inactive)
same,GI50,IGROV-1,> 100 µM (inactive)
same,GI50,HCT-15,> 100 µM
same,GI50,SW-620,> 100 µM (inactive)
same,GI50,MDA-N,> 100 µM (inactive)
same,GI50,UACC-257,> 100 µM (inactive)
same,GI50,OVCAR-5,> 100 µM (inactive)
same,GI50,SF-295,80 µM (inactive)
same,GI50,HOP-92,15.1 µM (inactive)
